Assay results taken from US4039540A, “3-Substituted quinoxaline-2-carboxamide-1,4-dioxides” (Pfizer Inc., priority 1975, dated 1977).
Converted amounts (≈) assume the structure as drawn. Like-named read-outs stand apart in the source and are kept apart here.

Experiments:
[1] = system: E. coli; assay: in vivo activity in mice infected with a lethal inoculum of E. coli; conditions: Escherichia coli, sc, subcutaneous, multiple dosing, read-out: IN VIVO E. coli, number of survivors among the treated animals
Method: (§1) In determining the in vivo activity of the quinoxaline-1,4-dioxides of this invention, the test compound is administered to mice which have been infected by […] injection of a lethal inoculum of pathogenic bacteria. The test compound is administered using a multiple dosing regimen and using either the oral (PO) or the subcutaneous (SC) route. The inoculum of bacteria varies from about 1 to about 10 times the amount needed to kill 100% of the mice under the conditions of the test. At the end of the test, the activity of the compound is assessed by counting the number of survivors among the treated animals.
(§2) In vitro and in vivo activity of representative compounds of this invention, determined as aforesaid, are reported in the following tabulation for compounds of the formula: [drawing 12]

[2] = system: Strep. pyogenes; assay: in vivo activity in mice infected with a lethal inoculum of Strep. pyogenes; conditions: Streptococcus pyogenes, multiple dosing
Method: as §1, §2

[3] = system: E. coli; assay: in vitro antibacterial activity, two-fold serial dilution in Brain-Heart Infusion Broth (MIC); format: cell-based; conditions: Escherichia coli, overnight, anaerobic
Method: (§3) The broth is inoculated with bacteria and with the test quinoxaline-1,4-dioxide and then it is incubated overnight under anerobic conditions. On the next day, the test is read visually. The minimum inhibitory concentration (MIC) of test compound is the lowest concentration which prevents turbidity, i.e., which prevents growth of the microorganism.
as §2

[4] = system: Strep. pyrogens; assay: as above; format: cell-based; conditions: overnight, anaerobic
Method: as §3, §2

[5] = oral, read-out: IN VIVO Strep. pyogenes, number of survivors among the treated animals, PO (data in parenthesis)
[6] = sc, subcutaneous, read-out: IN VIVO Strep. pyogenes, number of survivors among the treated animals

SMILES | responders at 25 mg/kg [1] | responders at 50 mg/kg [2, 5] | responders at 50 mg/kg [2, 6] | MIC [3] | MIC [4]
CCN(CC)CCCS(=O)(=O)Cc1c(C(=O)N(C)C)[n+]([O-])c2ccccc2[n+]1[O-] [N(CH3)2; SO2 (CH2)3 N(CH2 CH3)2; H] | 0% | 10% | 60% | 25 µg/mL (≈ 58.9 µM) | 6.25 µg/mL (≈ 14.7 µM)
CN(C)CCCS(=O)(=O)Cc1c(C(=O)N(C)C)[n+]([O-])c2ccccc2[n+]1[O-] [N(CH3)2; SO2 (CH2)3 N(CH3)2; H] | 100% | 60% | 100% | 3.12 µg/mL (≈ 7.88 µM) | 3.12 µg/mL (≈ 7.88 µM)
CN(C)C(=O)c1c(CS(=O)(=O)CCCN2CCCC2)[n+]([O-])c2ccccc2[n+]1[O-] [N(CH3)2; drawing 15; H] | 80% |  |  | 6.25 µg/mL (≈ 14.8 µM) | 3.12 µg/mL (≈ 7.4 µM)
CN(C)C(=O)c1c(CS(=O)(=O)CCCN2CCOCC2)[n+]([O-])c2ccccc2[n+]1[O-] [N(CH3)2; drawing 19; H] | 20% | 10% | 0% | 25 µg/mL (≈ 57 µM) | 25 µg/mL (≈ 57 µM)
CN(C)C(=O)c1c(CS(=O)(=O)CCCN2CCCCC2)[n+]([O-])c2ccccc2[n+]1[O-] [N(CH3)2; drawing 27; H] | 90% | 100% | 100% | 3.12 µg/mL (≈ 7.16 µM) | 3.12 µg/mL (≈ 7.16 µM)
CCN(CC)CCCS(=O)(=O)Cc1c(C(N)=O)[n+]([O-])c2ccccc2[n+]1[O-] [NH2; SO2 (CH2)3 N(CH2 CH3)2; H] | 80% | 50% | 90% | 6.25 µg/mL (≈ 15.8 µM) | 3.12 µg/mL (≈ 7.88 µM)
CN(C)CCCS(=O)(=O)Cc1c(C(N)=O)[n+]([O-])c2ccccc2[n+]1[O-] [NH2; SO2 (CH2)3 N(CH3)2; H] | 50% | 20% | 100% | 25 µg/mL (≈ 67.9 µM) | 1.56 µg/mL (≈ 4.24 µM)
NC(=O)c1c(CS(=O)(=O)CCO)[n+]([O-])c2ccccc2[n+]1[O-] [NH2; SO2 CH2 CH2 OH; H] | 0% | 80% | 40% | 12.5 µg/mL (≈ 38.2 µM) | 6.25 µg/mL (≈ 19.1 µM)
NC(=O)c1c(CS(=O)(=O)CCCN2CCCC2)[n+]([O-])c2ccccc2[n+]1[O-] [NH2; drawing 14; H] | 50% |  |  | 12.5 µg/mL (≈ 31.7 µM) | 6.25 µg/mL (≈ 15.8 µM)
NC(=O)c1c(CS(=O)(=O)CCCN2CCOCC2)[n+]([O-])c2ccccc2[n+]1[O-] [NH2; drawing 20; H] | 20% | 60% | 100% | 12.5 µg/mL (≈ 30.5 µM) | 12.5 µg/mL (≈ 30.5 µM)
NC(=O)c1c(CS(=O)(=O)CCCN2CCCCC2)[n+]([O-])c2ccccc2[n+]1[O-] [NH2; drawing 24; H] | 100% | 40% | 100% | 6.25 µg/mL (≈ 15.3 µM) | 6.25 µg/mL (≈ 15.3 µM)
CCCCNC(=O)c1c(CS(=O)(=O)CCCN(C)C)[n+]([O-])c2ccccc2[n+]1[O-] [NH(CH2)3 CH3; SO2 (CH2)3 N(CH3)2; H] | 50% | 80% | 100% | 25 µg/mL (≈ 58.9 µM) | 25 µg/mL (≈ 58.9 µM)
CCN(CC)CCCNC(=O)c1c(CS(=O)(=O)CCO)[n+]([O-])c2ccccc2[n+]1[O-] [NH(CH2)3 N(Et)2; SO2 CH2 CH2 OH; H] | 50% |  | 10% | > 200 µg/mL | 200 µg/mL (≈ 454 µM)
O=C(NCCCCc1ccccc1)c1c(CS(=O)(=O)CCO)[n+]([O-])c2ccccc2[n+]1[O-] [NH(CH2)4 .phi.; SO2 CH2 CH2 OH; H] | 20% | 10% | 10% | > 200 µg/mL | 3.12 µg/mL (≈ 6.8 µM)
CCCCNC(=O)c1c(CSCCO)[n+]([O-])c2ccccc2[n+]1[O-] [NHBu; SCH2 CH2 OH; H] | 0% | 10% | 20% | 50 µg/mL (≈ 142 µM) | 50 µg/mL (≈ 142 µM)
CCCCNC(=O)c1c(CS(=O)(=O)CCO)[n+]([O-])c2ccccc2[n+]1[O-] [NHBu; SO2 CH2 CH2 OH; H] | 40% | 40% | 0% | 25 µg/mL (≈ 65.2 µM) | 1.56 µg/mL (≈ 4.07 µM)
O=C(NCc1ccccc1)c1c(CS(=O)(=O)CCO)[n+]([O-])c2ccccc2[n+]1[O-] [NHCH2 .phi.; SO2 CH2 CH2 OH; H] | 20% | 20% | 20% | 200 µg/mL (≈ 479 µM) | 0.781 µg/mL (≈ 1.87 µM)
O=C(NCCCO)c1c(CSCCO)[n+]([O-])c2ccccc2[n+]1[O-] [NHCH2 CH2 CH2 OH; SCH2 CH2 OH; H] | 20% | 30% | 10% | 50 µg/mL (≈ 141 µM) | 25 µg/mL (≈ 70.7 µM)
O=C(NCCCO)c1c(CS(=O)(=O)CCO)[n+]([O-])c2ccccc2[n+]1[O-] [NHCH2 CH2 CH2 OH; SO2 CH2 CH2 OH; H] | 0% | 50% | 40% | 100 µg/mL (≈ 259 µM) | 12.5 µg/mL (≈ 32.4 µM)
CCCNC(=O)c1c(CS(=O)(=O)CCCN(C)C)[n+]([O-])c2ccccc2[n+]1[O-] [NHCH2 CH2 CH3; SO2 (CH2)3 N(CH3)2; H] | 20% | 80% | 100% | 25 µg/mL (≈ 60.9 µM) | 25 µg/mL (≈ 60.9 µM)
CCCNC(=O)c1c(CS(=O)(=O)CCCOC(C)=O)[n+]([O-])c2ccccc2[n+]1[O-] [NHCH2 CH2 CH3; SO2 CH2 CH2 CH2 OAc; H] | 0% | 0% | 30% | 200 µg/mL (≈ 470 µM) | 50 µg/mL (≈ 118 µM)
CN(C)CCNC(=O)c1c(CS(=O)(=O)CCO)[n+]([O-])c2ccccc2[n+]1[O-] [NHCH2 CH2 N(CH3)2; SO2 CH2 CH2 OH; H] | 0% |  | 20% | 50 µg/mL (≈ 125 µM) | 100 µg/mL (≈ 251 µM)
CN(C)CCNC(=O)c1c(CS(=O)(=O)CCCN2CCCCC2)[n+]([O-])c2ccccc2[n+]1[O-] [NHCH2 CH2 N(CH3)2; drawing 21; H] | 40% |  |  | 100 µg/mL (≈ 209 µM) | 50 µg/mL (≈ 104 µM)
COCCNC(=O)c1c(CS(=O)(=O)CCCN(C)C)[n+]([O-])c2ccccc2[n+]1[O-] [NHCH2 CH2 OCH3; SO2 (CH2)3 N(CH3)2; H] | 10% | 50% | 100% | 50 µg/mL (≈ 117 µM) | 1.56 µg/mL (≈ 3.66 µM)
CCNC(=O)c1c(CS(=O)(=O)CCCCN(C)C)[n+]([O-])c2ccccc2[n+]1[O-] [NHCH2 CH3; SO2 (CH2)4 N(CH3)2; H] | 20% |  |  | 50 µg/mL (≈ 122 µM) | 12.5 µg/mL (≈ 30.5 µM)
CCNC(=O)c1c(CS(=O)(=O)CCCN2CCCC2)[n+]([O-])c2ccccc2[n+]1[O-] [NHCH2 CH3; drawing 16; H] | 60% |  |  | 50 µg/mL (≈ 118 µM) | 12.5 µg/mL (≈ 29.6 µM)
CNC(=O)c1c(CS(=O)(=O)CCCCN(C)C)[n+]([O-])c2ccccc2[n+]1[O-] [NHCH3; SO2 (CH2)4 N(CH3)2; H] | 40% |  |  | 50 µg/mL (≈ 126 µM) | 50 µg/mL (≈ 126 µM)
CNC(=O)c1c(CS(=O)(=O)CCCN2CCCC2)[n+]([O-])c2ccccc2[n+]1[O-] [NHCH3; drawing 13; H] | 80% |  |  | 6.25 µg/mL (≈ 15.3 µM) | 3.12 µg/mL (≈ 7.65 µM)
